Measurements published in patent US20100227858A1, “TRISUBSTITUTED PYRIMIDINE DERIVATIVES FOR THE TREATMENT OF PROLIFERATIVE DISEASES” (ASTRAZENECA AB, priority 2007, published 2010).

The molecules below were run against recombinant mTOR (Homo sapiens, UniProt P42345) (assay: In vitro mTOR kinase assay, Test (a)(i) (AlphaScreen)). Details: enzyme assay; values may represent the average of two or more measurements; read-out: Test (a)(i) IC50.
Type: biochemical
Procedure: (a)(i) In Vitro mTOR Kinase Assay
The HEK293 FLAG-tagged mTOR (1362-2549) stable cell line was routinely maintained at 37° C. with 5% CO2 up to a confluency of 70-90% in Dulbecco's modified Eagle's growth medium (DMEM; Invitrogen Limited, Paisley, UK Catalogue No. 41966-029) containing 10% heat-inactivated foetal calf serum (FCS; Sigma, Poole, Dorset, UK, Catalogue No. F0392), 1% L-glutamine (Gibco, Catalogue No. 25030-024) and 2 mg/ml Geneticin (G418 sulfate; Invitrogen Limited, UK Catalogue No. 10131-027). Following expression in the mammalian HEK293 cell line, expressed protein was purified using the FLAG epitope tag using standard purification techniques.
A 30 μl mixture of recombinant purified mTOR enzyme, 1 μM biotinylated peptide substrate (Biotin-Ahx-[…]NH2; Bachem UK Ltd), ATP (20 μM) and a buffer solution [comprising Tris-HCl pH7.4 buffer (50 mM), EGTA (0.1 mM), bovine serum albumin (0.5 mg/mL), DTT (1.25 mM) and manganese chloride (10 mM)] was agitated at room temperature for 90 minutes.
These assay solutions were incubated for 2 hours at room temperature.
Phosphorylated biotinylated peptide is formed in situ as a result of mTOR mediated phosphorylation. The phosphorylated biotinylated peptide that is associated with AlphaScreen Streptavidin donor beads forms a complex with the p70 S6 Kinase (T389) 1A5 Monoclonal Antibody that is associated with Alphascreen Protein A acceptor beads. […] Accordingly, the presence of mTOR kinase activity results in an assay signal. In the presence of an mTOR kinase inhibitor, signal strength is reduced.

Sequence of recombinant mTOR (P42345 1362-2549): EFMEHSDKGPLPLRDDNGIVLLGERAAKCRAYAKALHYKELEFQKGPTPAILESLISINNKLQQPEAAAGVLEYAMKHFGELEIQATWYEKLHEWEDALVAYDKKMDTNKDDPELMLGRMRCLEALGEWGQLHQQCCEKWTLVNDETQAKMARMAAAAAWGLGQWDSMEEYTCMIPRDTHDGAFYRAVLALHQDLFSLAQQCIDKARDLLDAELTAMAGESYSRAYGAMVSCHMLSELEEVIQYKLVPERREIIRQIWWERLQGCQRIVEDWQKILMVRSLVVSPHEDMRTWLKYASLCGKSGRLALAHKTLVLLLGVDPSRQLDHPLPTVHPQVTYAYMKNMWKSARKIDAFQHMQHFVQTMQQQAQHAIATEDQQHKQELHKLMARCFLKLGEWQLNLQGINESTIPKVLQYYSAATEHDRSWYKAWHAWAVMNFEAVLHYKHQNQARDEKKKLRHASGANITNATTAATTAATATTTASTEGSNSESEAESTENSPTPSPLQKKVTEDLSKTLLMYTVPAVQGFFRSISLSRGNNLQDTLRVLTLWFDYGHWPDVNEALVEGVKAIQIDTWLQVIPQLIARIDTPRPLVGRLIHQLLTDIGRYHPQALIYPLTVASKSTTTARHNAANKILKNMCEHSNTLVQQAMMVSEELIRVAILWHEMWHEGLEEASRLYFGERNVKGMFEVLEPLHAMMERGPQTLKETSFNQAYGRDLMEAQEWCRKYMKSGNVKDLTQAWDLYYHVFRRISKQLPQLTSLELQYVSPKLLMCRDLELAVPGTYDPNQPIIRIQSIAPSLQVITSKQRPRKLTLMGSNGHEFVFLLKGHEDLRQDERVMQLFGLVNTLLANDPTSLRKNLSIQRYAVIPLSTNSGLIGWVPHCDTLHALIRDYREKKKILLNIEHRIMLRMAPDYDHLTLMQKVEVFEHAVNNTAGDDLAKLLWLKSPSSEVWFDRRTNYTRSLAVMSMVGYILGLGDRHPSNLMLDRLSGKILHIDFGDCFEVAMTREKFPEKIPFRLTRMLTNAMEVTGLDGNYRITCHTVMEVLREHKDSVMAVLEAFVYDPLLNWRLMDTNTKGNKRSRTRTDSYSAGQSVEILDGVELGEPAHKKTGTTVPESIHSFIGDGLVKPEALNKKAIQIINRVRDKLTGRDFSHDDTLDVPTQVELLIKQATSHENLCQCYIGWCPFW

| Compound | IC50 [nM] |
| --- | --- |
| CC(=O)Nc1cc(C(=O)Nc2nc(N3CCOC[C@@H]3C)cc(N3CCOC[C@@H]3C)n2)ccn1 [Example 15, 2-Acetamido-N-[4,6-bis[(3S)-3-methylmorpholin-4-yl]pyrimidin-2-yl]pyridine-4-carboxamide] | 9550 |
| CC(=O)Nc1ccc(C(=O)Nc2nc(N3CCOC[C@@H]3C)cc(N3CCOC[C@@H]3C)n2)cn1 [Example 13, 6-Acetamido-N-[4,6-bis[(3S)-3-methylmorpholin-4-yl]pyrimidin-2-yl]pyridine-3-carboxamide] | 1580 |
| COc1ccc(C(=O)Nc2nc(N3CCOC[C@@H]3C)cc(N3CCOC[C@@H]3C)n2)cc1F [Example 16, N-[4,6-Bis[(3S)-3-methylmorpholin-4-yl]pyrimidin-2-yl]-3-fluoro-4-methoxy-benzamide] | 2470 |
| COc1cc(C(=O)Nc2nc(N3CCOC[C@@H]3C)cc(N3CCOC[C@@H]3C)n2)ccn1 [Example 12, N-[4,6-Bis[(3S)-3-methylmorpholin-4-yl]pyrimidin-2-yl]-2-methoxy-pyridine-4-carboxamide] | 4000 |
| CC(=O)Nc1ccc(C(=O)Nc2cc(N3CCOC[C@@H]3C)nc(N3CCOC[C@@H]3C)n2)cn1 [Example 8, 6-Acetamido-N-[2,6-bis[(3S)-3-methylmorpholin-4-yl]pyrimidin-4-yl]pyridine-3-carboxamide] | 1780 |
| COc1ccccc1C(=O)Nc1cc(N2CCOC[C@@H]2C)nc(N2CCOC[C@@H]2C)n1 [Example 9, N-[2,6-Bis[(3S)-3-methylmorpholin-4-yl]pyrimidin-4-yl]-2-methoxy-benzamide] | 894 |
| COc1ccccc1C(=O)Nc1nc(N2CCOC[C@@H]2C)cc(N2CCOC[C@@H]2C)n1 [Example 14, N-[4,6-Bis[(3S)-3-methylmorpholin-4-yl]pyrimidin-2-yl]-2-methoxy-benzamide] | 886 |
| CC(=O)Nc1cc(C(=O)Nc2cc(N3CCOC[C@@H]3C)nc(N3CCOC[C@@H]3C)n2)ccn1 [Example 10, 2-Acetamido-N-[2,6-bis[(3S)-3-methylmorpholin-4-yl]pyrimidin-4-yl]pyridine-4-carboxamide] | 26400 |
| C[C@@H]1CN(c2nc(CS(C)(=O)=O)cc(N3CCOC[C@@H]3C)n2)C[C@H](C)O1 [Example 20, 2-[(2R,6S)-2,6-Dimethylmorpholin-4-yl]-4-[(3S)-3-methylmorpholin-4-yl]-6-(methylsulfonylmethyl)pyrimidine] | 1650 |
| COc1ccc(C(=O)Nc2nc(N3CCOC[C@@H]3C)cc(N3CCOC[C@@H]3C)n2)cn1 [Example 6, N-[4,6-Bis[(3S)-3-methylmorpholin-4-yl]pyrimidin-2-yl]-6-methoxy-pyridine-3-carboxamide] | 2680 |
| COc1ccc(C(=O)Nc2nc(N3CCOC[C@@H]3C)cc(N3CCOC[C@@H]3C)n2)cc1C(F)(F)F [Example 4, N-[4,6-Bis[(3S)-3-methylmorpholin-4-yl]pyrimidin-2-yl]-4-methoxy-3-(trifluoromethyl)benzamide] | 442 |
| COc1cccc(C(=O)Nc2nc(N3CCOC[C@@H]3C)cc(N3CCOC[C@@H]3C)n2)c1 [Example 5, N-[4,6-Bis[(3S)-3-methylmorpholin-4-yl]pyrimidin-2-yl]-3-methoxy-benzamide] | 364 |
| COc1cccc(C(=O)Nc2cc(N3CCOC[C@@H]3C)nc(N3CCOC[C@@H]3C)n2)c1 [Example 3, N-[2,6-Bis[(3S)-3-methylmorpholin-4-yl]pyrimidin-4-yl]-3-methoxy-benzamide] | 234 |
| COc1ccc(C(=O)Nc2cc(N3CCOC[C@@H]3C)nc(N3CCOC[C@@H]3C)n2)cc1F [Example 11, N-[2,6-Bis[(3S)-3-methylmorpholin-4-yl]pyrimidin-4-yl]-3-fluoro-4-methoxy-benzamide] | 3580 |

More lines, now with the values ahead:

| IC50 [nM] | Compound |
| --- | --- |
| 154 | C[C@H]1COCCN1c1cc(CS(C)(=O)=O)nc(-c2ccc3[nH]cc(C(N)=O)c3c2)n1 [Example 33, 5-[4-[(3S)-3-Methylmorpholin-4-yl]-6-(methylsulfonylmethyl)pyrimidin-2-yl]-1H-indole-3-carboxamide] |
| 366 | C[C@H]1COCCN1c1cc(CS(=O)(=O)c2ccccc2)nc(-c2cccc3[nH]ccc23)n1 [Example 44, 4-[4-(Benzenesulfonylmethyl)-6-[(3S)-3-methylmorpholin-4-yl]pyrimidin-2-yl]-1H-indole] |
| 117 | C[C@H]1COCCN1c1cc(C(C)(C)S(C)(=O)=O)nc(-c2ccc3[nH]ccc3c2)n1 [Example 41, 5-[4-[(3S)-3-methylmorpholin-4-yl]-6-(2-methylsulfonylpropan-2-yl)pyrimidin-2-yl]-1H-indole] |
| 588 | C[C@H]1COCCN1c1cc(C(C)(C)S(C)(=O)=O)nc(-c2cnc3[nH]ccc3c2)n1 [Example 40, 3-[4-[(3S)-3-Methylmorpholin-4-yl]-6-(2-methylsulfonylpropan-2-yl)pyrimidin-2-yl]-5,7-diazabicyclo[4.3.0]nona-1,3,5,8-tetraene] |
| 626 | CC(C)S(=O)(=O)Cc1cc(N2CCOC[C@H]2C)nc(-c2ccc3[nH]ccc3c2)n1 [Example 28, 5-[4-[(3R)-3-methylmorphlin-4-yl]-6-(propan-2-ylsulfonylmethyl)pyrimidin-2-yl]-1H-indole] |
| 303 | C[C@H]1COCCN1c1cc(CS(C)(=O)=O)nc(-c2ccc3[nH]ccc3c2)n1 [Example 24] |
| 336 | C[C@H]1COCCN1c1cc(CS(C)(=O)=O)nc(-c2ccc3[nH]c(C(N)=O)cc3c2)n1 [Example 37, 5-[4-[(3S)-3-Methylmorpholin-4-yl]-6-(methylsulfonylmethyl)pyrimidin-2-yl]-1H-indole-2-carboxamide] |
| 385 | C[C@@H]1COCCN1c1cc(CS(C)(=O)=O)nc(-c2ccc3[nH]ccc3c2)n1 [Example 25, 5-[4-[(3R)-3-methylmorpholin-4-yl]-6-(methylsulfonylmethyl)pyrimidin-2-yl]-1H-indole] |
| 880 | C[C@H]1COCCN1c1cc(C(C)(C)S(C)(=O)=O)nc(-c2ccc3cc[nH]c3c2)n1 [Example 43, 6-[4-[(3S)-3-methylmorpholin-4-yl]-6-(2-methylsulfonylpropan-2-yl)pyrimidin-2-yl]-1H-indole] |
| 573 | C[C@H]1COCCN1c1cc(CS(C)(=O)=O)nc(-c2cnc(-c3cn[nH]c3)s2)n1 [Example 34, 4-[(3S)-3-Methylmorpholin-4-yl]-6-(methylsulfonylmethyl)-2-[2-(1H-pyrazol-4-yl)-1,3-thiazol-5-yl]pyrimidine] |
| 2300 | C[C@H]1COCCN1c1cc(CS(C)(=O)=O)nc(N2CCCC(O)C2)n1 (stereo partly drawn) [Example 21, 1-[4-[(3S)-3-Methylmorpholin-4-yl]-6-(methylsulfonylmethyl)pyrimidin-2-yl]piperidin-3-ol] |
| 37.7 | C[C@H]1COCCN1c1cc(CS(C)(=O)=O)nc(-c2cnc3[nH]ccc3c2)n1 [Example 23, 3-[4-[(3S)-3-Methylmorpholin-4-yl]-6-(methylsulfonylmethyl)pyrimidin-2-yl]-5,7-diazabicyclo[4.3.0]nona-1,3,5,8-tetraene] |
| 437 | C[C@H]1COCCN1c1cc(CS(C)(=O)=O)nc(-c2cccc(-c3cn[nH]c3)c2)n1 [Example 32, 4-[(3S)-3-Methylmorpholin-4-yl]-6-(methylsulfonylmethyl)-2-[3-(1H-pyrazol-4-yl)phenyl]pyrimidine] |
| 119 | C[C@H]1COCCN1c1cc(CS(=O)(=O)c2ccccc2)nc(-c2ccc3[nH]ccc3c2)n1 [Example 45, 5-[4-(benzenesulfonylmethyl)-6-[(3S)-3-methylmorpholin-4-yl]pyrimidin-2-yl]-1H-indole] |
| 990 | C[C@H]1COCCN1c1cc(CS(C)(=O)=O)nc(-c2ccc(-c3cn[nH]c3)cc2)n1 [Example 31, 4-[(3S)-3-Methylmorpholin-4-yl]-6-(methylsulfonylmethyl)-2-[4-(1H-pyrazol-4-yl)phenyl]pyrimidine] |
| 1700 | C[C@H]1COCCN1c1cc(CS(C)(=O)=O)nc(N2CCOCC2)n1 [Example 22, 4-[(3S)-3-methylmorpholin-4-yl]-6-(methylsulfonylmethyl)-2-morpholin-4-yl-pyrimidine] |
| 335 | C[C@H]1COCCN1c1cc(C(C)(C)S(C)(=O)=O)nc(-c2cccc3[nH]ccc23)n1 [Example 42, 4-[4-[(3S)-3-methylmorpholin-4-yl]-6-(2-methylsulfonylpropan-2-yl)pyrimidin-2-yl]-1H-indole] |
| 192 | C[C@H]1COCCN1c1cc(C(C)(C)S(C)(=O)=O)nc(-c2ccc3[nH]cnc3c2)n1 [Example 39, 5-[4-[(3S)-3-Methylmorpholin-4-yl]-6-(2-methylsulfonylpropan-2-yl)pyrimidin-2-yl]-1H-benzoimidazole] |
| 512 | C[C@H]1COCCN1c1cc(CS(=O)(=O)c2ccccc2)nc(-c2ccc3cc[nH]c3c2)n1 [Example 47, 6-[4-(benzenesulfonylmethyl)-6-[(3S)-3-methylmorpholin-4-yl]pyrimidin-2-yl]-1H-indole] |
| 351 | CCS(=O)(=O)Cc1cc(N2CCOC[C@H]2C)nc(-c2ccc3[nH]ccc3c2)n1 [Example 29, 5-[4-(ethylsulfonylmethyl)-6-[(3R)-3-methylmorpholin-4-yl]pyrimidin-2-yl]-1H-indole] |
